Earlier results, collected in patent publication US9687454B2, “Sublingual and buccal film compositions” (Indivior UK Limited, priority 2009, dated 2017).

Conditions: known value

For `C=CCN1CC[C@]23c4c5ccc(O)c4O[C@H]2C(=O)CC[C@@]3(O)[C@H]1C5` [naloxone], the pKa is listed as “about 7.94”.
